Experimental data taken from patent US9258995B2, “Organ cold storage composition and methods of use” (BOARD OF TRUSTEES OF THE UNIVERSITY OF ARKANSAS, priority 2009, dated 2016).

Columns and labels:
[1] = tested on: mitochondrial respiratory complex II; test: Mitochondrial respiratory complex activity, NRK cell mitochondria after CS; type: cell-based, rat; settings: NRK cells, 4-h CS, 1 μM
Method: (§1) Normal rat kidney proximal tubular cells (NRK-52E; American Type Culture Collection, Manassas, Va.) were maintained in six-well 100 or 150-mm, or 150-mm plates in a humidified incubator gassed with 5% CO2 and 95% air at 37° C. in DMEM (Invitrogen, Carlsbad, Calif.) containing 5% fetal calf serum (FCS). Cells were grown to 60% confluence and divided into four treatment groups: 1) untreated (Untx), 2) CS, 3) CS+MitoQ, and 4) CS+DecylTPP. Untreated cells remained at 37° C. in DMEM containing 5% FCS (group 1). CS was initiated by washing cells with cold PBS (Invitrogen) twice and storing them in UW/Viaspan solution alone (4 h at 4° C.) (group 2), CS+MitoQ (1 μM) (group 3), or CS+DecylTPP (1 μM) (group 4). In separate experiments, cells were exposed to CS plus RW by replacing UW solution alone or UW solution containing MitoQ or DecylTPP with DMEM containing 5% FCS overnight (18 h at 37° C.).
(§2) NRK cell and rat kidney mitochondria were isolated by centrifugation on a sucrose density gradient. The activity of mitochondrial respiratory complexes I, II, III, or IV were assayed spectrophotometrically using 100 μg of mitochondrial protein at 30° C. as previously described.

[2] = tested on: mitochondrial respiratory complex I; test: as above; type: cell-based, rat; settings: NRK cells, 4-h CS, 1 μM
Method: as §1, §2

rat kidneys [3] = test: MitoSOX Red mitochondrial superoxide generation, cold storage ex vivo model; settings: rat kidneys, 4 h CS at 4° C., 100 μM
Method: (§3) All animals were treated according to the National Institutes of Health Guide for the Care and Use of Laboratory Animals and the University of Arkansas for Medical Sciences Institutional Animal Care and Use Committee guidelines. Male Fischer 344 inbred rats (Charles Rivers Laboratories, Inc., Wilmington, Mass.) weighing between 250 and 300 g were anesthetized with ethrane, followed by shaving and prepping with betadine. […] Bulldog clamps were placed on the aorta and vena cava (proximal and distal to the renal vessels) to prevent blood flow to the kidneys. A 22-gauge surgical needle was used to puncture the rat's aorta to flush the renal grafts with saline (10 ml per kidney) using a small catheter. Once the kidneys started to turn light brown (perfusion), another vent was formed in the vena cava to allow blood flow from the kidneys. Once both kidneys were completely flushed, the right kidney was recovered and served as a control (group 1), and the left kidney was exposed to CS alone for 4 h at 4° C. (group 2). In additional experiments, kidneys were flushed with saline through the aorta using a small catheter followed by flushing the right kidney with saline containing MitoQ (100 μM) and the left kidney with saline containing DecylTPP (100 μM) (10 ml per kidney). Tissues were recovered and stored in CS+MitoQ (100 μM; right kidney) or CS+DecylTPP (100 μM; left kidney) for 4 h at 4° C. (groups 3 and 4, respectively). […]
(§4) MitoSOX Red (Invitrogen) was used to measure mitochondrial superoxide generation during CS. […] Fluorescence was visualized using an Eclipse E800 microscope (Nikon, Melville, N.Y.) with a rhodamine filter using a water immersion objective (60×). Fluorescent images of NRK cells were captured with equal exposure times and quantified by averaging the mean intensity fluorescence of five random cells in three different fields using Nikon N is Elements software. In separate experiments, cells were grown on coverslips, preloaded with MitoSOX Red before treatment (groups 1-4), and evaluated for mitochondrial superoxide generation using a Hitachi F-2500 spectrofluorometer (Hitachi, Tokyo, Japan) equipped with a coverslip holder using two different excitation wavelengths: 396 and 510 nm with the emission measured at 580 nm as previously described. In addition, rat kidneys were monitored for mitochondrial superoxide generation by flushing kidneys with saline through the aorta using a small catheter as described under Cold Storage Ex Vivo Model, followed by saline containing MitoSOX Red (5 μM; 10 ml/kidney) before treatment (groups 1-4). Paraffin sections were analyzed using the rhodamine filter on the Nikon Eclipse 800 microscope (20×).

rat kidneys [4] = test: Periodic acid-Schiff morphological assessment of renal injury during CS; settings: 4 h CS, 100 μM
Method: as §3, with “C.” for “C. (group 2). In additional experiments, kidneys were flushed with saline through the aorta using a small catheter followed by flushing the right kidney with saline containing MitoQ (100 μM) and the left kidney with saline containing DecylTPP (100 μM) (10 ml per kidney). Tissues were recovered and stored in CS+MitoQ (100 μM; right kidney) or CS+DecylTPP (100 μM; left kidney) for 4 h at 4° C. (groups 3 and 4, respectively).”
Renal sections were assessed for tissue injury using the periodic acid-Schiff reaction. […] Morphological evaluation of tubular dilation, brush border loss, and cellular debris/tubular cast formation were performed blindly with light microscopy and assessed semiquantitatively according to the following scoring system: 0, no changes; 1, mild changes; 2, moderate changes, and 3, severe changes.

NRK cells [5] = test: MitoSOX Red mitochondrial superoxide generation, cold storage in vitro model; type: cell-based, rat; settings: 4 h CS at 4° C. in UW, 1 μM
Method: Normal rat kidney proximal tubular cells (NRK-52E; American Type Culture Collection, Manassas, Va.) were maintained in six-well 100 or 150-mm, or 150-mm plates in a humidified incubator gassed with 5% CO2 and 95% air at 37° C. in DMEM (Invitrogen, Carlsbad, Calif.) containing 5% fetal calf serum (FCS). Cells were grown to 60% confluence and divided into four treatment groups: 1) untreated (Untx), 2) CS, 3) CS+MitoQ, and 4) CS+DecylTPP. Untreated cells remained at 37° C. in DMEM containing 5% FCS (group 1). […]
as §4, with “In addition, rat kidneys were monitored for mitochondrial superoxide generation by flushing kidneys with saline through the aorta using a small catheter as described under Cold Storage Ex Vivo Model, followed by saline containing MitoSOX Red (5 μM; 10 ml/kidney) before treatment (groups 1-4). Paraffin sections were analyzed using the rhodamine filter on the Nikon Eclipse 800 microscope (20×).” left out

rat kidneys [6] = test: TUNEL staining of renal cell death during CS; settings: 4 h CS, 100 μM
Method: All animals were treated according to the National Institutes of Health Guide for the Care and Use of Laboratory Animals and the University of Arkansas for Medical Sciences Institutional Animal Care and Use Committee guidelines. Male Fischer 344 inbred rats (Charles Rivers Laboratories, Inc., Wilmington, Mass.) weighing between 250 and 300 g were anesthetized with ethrane, followed by shaving and prepping with betadine. […] Bulldog clamps were placed on the aorta and vena cava (proximal and distal to the renal vessels) to prevent blood flow to the kidneys. A 22-gauge surgical needle was used to puncture the rat's aorta to flush the renal grafts with saline (10 ml per kidney) using a small catheter. Once the kidneys started to turn light brown (perfusion), another vent was formed in the vena cava to allow blood flow from the kidneys. […]
Cell cytotoxicity was determined using the LDH-Cytotoxicity Assay Kit II (Biovision Research Products, Mountain View, Calif.) according to the manufacturer's instructions. Absorbance was measured at 450 nm using a SpectraMax 190 microplate reader and SpectraMax software (Molecular Devices, Sunnyvale, Calif.). Renal cell death was determined using TUNEL staining. […] The amount of cell death was calculated by averaging the number of cells positive for TUNEL (brown staining) in 10 different fields (cortex and medulla) (20×). […]

[7] = tested on: mitochondrial respiratory complex II; test: Mitochondrial respiratory complex activity, rat kidney mitochondria after CS; settings: rat kidneys, 4-h CS, 100 μM
Method: (§5) All animals were treated according to the National Institutes of Health Guide for the Care and Use of Laboratory Animals and the University of Arkansas for Medical Sciences Institutional Animal Care and Use Committee guidelines. Male Fischer 344 inbred rats (Charles Rivers Laboratories, Inc., Wilmington, Mass.) weighing between 250 and 300 g were anesthetized with ethrane, followed by shaving and prepping with betadine. […] Bulldog clamps were placed on the aorta and vena cava (proximal and distal to the renal vessels) to prevent blood flow to the kidneys. A 22-gauge surgical needle was used to puncture the rat's aorta to flush the renal grafts with saline (10 ml per kidney) using a small catheter. Once the kidneys started to turn light brown (perfusion), another vent was formed in the vena cava to allow blood flow from the kidneys. Once both kidneys were completely flushed, the right kidney was recovered and served as a control (group 1), and the left kidney was exposed to CS alone for 4 h at 4° C. (group 2). In additional experiments, kidneys were flushed with saline through the aorta using a small catheter followed by flushing the right kidney with saline containing MitoQ (100 μM) and the left kidney with saline containing DecylTPP (100 μM) (10 ml per kidney). Tissues were recovered and stored in CS+MitoQ (100 μM; right kidney) or CS+DecylTPP (100 μM; left kidney) for 4 h at 4° C. (groups 3 and 4, respectively). A thin middle section from all of the kidneys were cut and immediately fixed in 10% formalin before being embedded in paraffin for sectioning (4 μm) and histological evaluation. The remaining portion of the kidneys were quickly frozen in liquid nitrogen and stored in −80° C. until needed for biochemistry analyses.
as §2

[8] = tested on: mitochondrial respiratory complex I; test: as above; settings: rat kidneys, 4-h CS, 100 μM
Method: as §5, §2

NRK cells [9] = test: Nitrotyrosine immunocytochemistry, CS plus rewarming; type: cell-based, rat; settings: 4-h CS plus overnight (18 h) RW, 1 μM added during CS
Method: as §1
(§6) NRK cells (groups 1-4) were assessed for nitrotyrosine formation as previously described. […] Nitrotyrosine staining was evaluated and captured with equal exposure times using a Nikon Eclipse 800 microscope (40×oil). Images were quantified by averaging the mean intensity fluorescence of five random cells in three different fields using Nikon N is Elements software. Renal tissue sections were assessed for the presence of nitrotyrosine protein adducts by nitrotyrosine immunohistochemistry. […]

NRK cells [10] = test: LDH cytotoxicity assay, CS and CS plus rewarming; type: cell-based; settings: 1 μM
Method: as §1
Cell cytotoxicity was determined using the LDH-Cytotoxicity Assay Kit II (Biovision Research Products, Mountain View, Calif.) according to the manufacturer's instructions. Absorbance was measured at 450 nm using a SpectraMax 190 microplate reader and SpectraMax software (Molecular Devices, Sunnyvale, Calif.). Renal cell death was determined using TUNEL staining. Kidney sections were deparaffinized, rehydrated, and exposed to antigen retrieval (20-min incubation at 95° C. with 10 mM sodium citrate buffer, pH 6.0) followed by washing with distilled water and quenching of endogenous peroxidase. Sections were immersed in TdT labeling buffer and then incubated in a humidified chamber with the labeling reaction mix from the TAGS 2 TdT-DAB In Situ Apoptosis Detection kit (Trevigen, Inc., Gaithersburg, Md.) for 1 h at room temperature. The reaction was stopped with TdT stop buffer, and slides were subsequently washed with PBS. Sections were incubated for 10 min with streptavidin-HRP followed by development with diaminobenzidine solution, counterstaining with Mayer's hematoxylin, dehydration, and mounting with Cytoseal-60. The amount of cell death was calculated by averaging the number of cells positive for TUNEL (brown staining) in 10 different fields (cortex and medulla) (20×). All images were taken at equal exposure times (40×oil).

NRK cells [11] = test: Nitrotyrosine immunocytochemistry during CS; type: cell-based, rat; settings: 4 h CS, 1 μM
Method: as §1, §6

NRK cells [12] = settings: 24 h CS of NRK cells; cited from earlier work

CCCCCCCCCC[P+](c1ccccc1)(c1ccccc1)c1ccccc1.[Br-] [DecylTPP, decyltriphenylphosphonium bromide, reference compound]
complex II inactivation [1]: no significant effect
complex I inactivation [2]: no significant effect
mitochondrial superoxide generation (MitoSOX Red) (rat kidneys [3]): comparable levels of mitochondrial superoxide to kidneys exposed to CS alone
renal histology / renal injury (periodic acid-Schiff staining) (rat kidneys [4]): did not reverse renal injury
CS-induced mitochondrial superoxide generation (MitoSOX Red) (NRK cells [5]): did not offer any protection
protection against cell death (TUNEL) (rat kidneys [6]): no protective benefits
complex II inactivation [7]: did not have any effect
complex I inactivation [8]: did not have any effect
nitrotyrosine staining during CS.RW (NRK cells [9]): no effect
effect on cell death (LDH cytotoxicity) (NRK cells [10]; CS alone): did not reduce
effect on cell death (LDH cytotoxicity) (NRK cells [10]; CS.RW): did not reduce
effect on CS-mediated nitrotyrosine formation (NRK cells [11]): did not decrease

CNC(=N)NCCC[C@H](N)C(=O)O.O=C(O)CC(O)(CC(=O)O)C(=O)O [N^5-[imino(methylamino)methyl]-L-ornithine citrate]
nitrotyrosine staining (one marker of peroxynitrite) (NRK cells [12]): inhibited
